Assay results: PMC10820861, “Furofuranoid-Type Lignans and Related Phenolics from Anisacanthus virgularis (Salisb.) Nees with Promising Anticholinesterase and Anti-Ageing Properties: A Study Supported by Molecular Modelling” (Plants, 2024)
“And” between values parts separate entries of the source, which are not always exact repeats. Equal entries are not always repeated. Where two headings read alike, the source gives them in different places.

Columns and labels:
[1] = biological target: T1, AChE (Electrophorus electricus, UniProt O42275); experiment: biochemical; conditions: for IC50 / % Inhibition of AChE: mean ± SD; for inhibition at 0.01 µM / inhibition at 0.1 µM / inhibition at 1 µM / inhibition at 10 µM: read-out: % Inhibition of AChE
T1 construct: purchased
Method: The preparation of the sample was the same as has been previously described. The AChE-inhibitory effect of the furofuranoid lignans 1–5 was determined using an AChE inhibitor screening kit (the Quanti-Chrome assay kit). […] The 96-well plate reaction was prepared according to the manufacturer’s protocol.

[2] = tested on: TERT; experiment: TERT enzyme (telomerase activation) assay in normal melanocyte HFB4 cells; type: cell-based, human; conditions: 1 μM; for TERT Concentration Mean ± SD / Relative Increase (TERT vs untreated HFB4 control): 24 h; for Relative Increase (TERT vs untreated HFB4 control): control = 1
Method: In the present study, we assessed the in vitro anti-ageing activity of the lignan-type compounds 1–5 utilizing a TERT enzyme assay (Table 3). The normal melanocyte cell line (HFB4) was used as a model system in this study, and curcumin (1 μM) was used as a standard telomerase activator [47]. According to the report, curcumin has made it possible for model organisms to live longer, reduced the signs of ageing, and slowed the onset of age-related illnesses where cellular senescence is a direct cause.
TERT activity assay was used for in vitro investigation of the compound’s anti-ageing properties. The HFB4 (VACSERA, Giza, Egypt) was used as a model system for the study of amplification of telomers in response to our test compounds and curcumin. HFB4 cells were cultivated in RPMI-1640 medium enriched with heat-inactivated FBS (10%) and penicillin–streptomycin (100 U/mL). HFB4 cells (2 × 10^5) were plated and incubated in a 5% CO2 humidified atmosphere at 37 °C for 24 h. The cells were then left untreated (negative control), treated with tested compounds and with 1 μM curcumin, a standard activator for TERT. The supernatant from the various conditions was collected after 24 h, centrifuged for 20 min at 1000× g at 4 ℃, and immediately submitted for the assay as previously described. The different supernatants were added separately to a microtiter plate pre-coated with a TERT-specific antibody (Ab) and then incubated with a TERT-specific biotin detection Ab. Then, streptavidin/horseradish peroxidase (SABC) conjugate was added to all wells and incubated. […] The optical density (OD) was measured spectrophotometrically at 450 nm. The TERT concentration was determined by comparing the OD of the samples with the standard curve prepared according to the instructions of the manufacturer. The relative OD450 = (OD450 of the reaction well) − (OD450 of no treatment well). The standard curve was plotted by drawing the relative OD450 of each standard solution (Y) versus the respective concentration of the standard solution (X). The human TERT concentration of the samples was interpolated from the standard curve.

[3] = tested on: memory decline; conditions: 25 mg/kg, p.o.; dose-dependent; cited from earlier work
[4] = tested on: hippocampal long-term potentiation; parameters: method as in PMID 30685474; conditions: 50 μM; cited from earlier work
[5] = tested on: acetylcholinesterase; conditions: concentration-dependent; cited from earlier work
[6] = tested on: neuro2a cells; parameters: method as in PMID 30685474; conditions: cited from earlier work
[7] = tested on: AChE enzyme; parameters: method as in doi:10.25135/rnp.71.17.04.074; conditions: 250 µg/mL; cited from earlier work
[8] = tested on: butyrylcholinesterase enzyme; parameters: method as in doi:10.25135/rnp.71.17.04.074; conditions: 250 µg/mL; cited from earlier work
[9] = read-out: IC50 (AChE inhibition)

T1 sequence (O42275 24-633): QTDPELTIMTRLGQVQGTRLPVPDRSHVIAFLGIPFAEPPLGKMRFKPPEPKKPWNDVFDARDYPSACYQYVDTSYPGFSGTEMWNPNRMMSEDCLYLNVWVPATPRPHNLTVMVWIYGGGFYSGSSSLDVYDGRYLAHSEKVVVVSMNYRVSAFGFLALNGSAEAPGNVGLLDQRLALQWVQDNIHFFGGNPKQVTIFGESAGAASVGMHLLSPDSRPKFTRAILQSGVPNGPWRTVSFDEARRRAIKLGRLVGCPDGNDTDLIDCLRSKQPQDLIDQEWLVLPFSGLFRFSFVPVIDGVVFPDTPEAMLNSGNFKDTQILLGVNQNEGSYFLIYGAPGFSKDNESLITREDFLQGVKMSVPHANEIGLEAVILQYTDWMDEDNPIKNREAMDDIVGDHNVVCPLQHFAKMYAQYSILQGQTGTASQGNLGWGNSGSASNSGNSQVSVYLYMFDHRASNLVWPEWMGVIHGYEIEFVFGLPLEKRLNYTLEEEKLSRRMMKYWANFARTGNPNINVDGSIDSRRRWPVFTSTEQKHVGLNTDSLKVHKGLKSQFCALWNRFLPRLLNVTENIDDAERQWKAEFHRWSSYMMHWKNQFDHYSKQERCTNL

COc1cc([C@H]2OC[C@H]3[C@@H]2CO[C@@H]3c2ccc(O)c(OC)c2)ccc1O (relative stereo) [Compound 2, pinoresinol]
IC50 ([1]; IC50 (AChE inhibition)): 292 ± 9 nM
inhibition at 0.01 µM [1]: 26 ± 1%
inhibition at 0.1 µM [1]: 41 ± 1%
inhibition at 1 µM [1]: 60 ± 3%
inhibition at 10 µM [1]: 75 ± 2%
increase in telomerase activity compared to untreated cells [2]: a little weak
TERT Concentration Mean ± SD [2]: 2.2 ± 0.03 ng/mL
Relative Increase (TERT vs untreated HFB4 control) [2]: 1.28
effect on memory decline in dementia model [3]: improved memory decline
effect on induction of hippocampal long-term potentiation [4]: aided the induction of hippocampal long-term potentiation
effect on acetylcholinesterase activity [5]: inhibited the activity of acetylcholinesterase in a concentration-dependent manner
effect on calcium influx [6]: aided calcium influx into neuro2a cells

COc1cc([C@H]2OC[C@H]3[C@@H]2CO[C@H]3c2ccc(O)c(OC)c2)ccc1O (relative stereo) [Compound 3, epipinoresinol]
IC50 ([1]; IC50 (AChE inhibition)): 242 ± 9 nM
inhibition at 0.01 µM [1]: 23 ± 1%
inhibition at 0.1 µM [1]: 44 ± 1%
inhibition at 1 µM [1]: 60 ± 2%
inhibition at 10 µM [1]: 82 ± 3%
increase in telomerase activity compared to untreated cells [2]: a little weak
TERT Concentration Mean ± SD [2]: 2.0 ± 0.06 ng/mL
Relative Increase (TERT vs untreated HFB4 control) [2]: 1.18

COc1cc([C@H]2OC[C@H]3[C@@H]2CO[C@@H]3c2cc(OC)c3c(c2)[C@H](CO)[C@@H](c2ccc(O[C@@H]4O[C@H](CO)[C@@H](O)[C@H](O)[C@H]4O)c(OC)c2)O3)ccc1O [Compound 1, anisacanthin]
IC50 [1, 9]: 85 nM
inhibition at 0.01 µM [1]: 24 ± 1%
inhibition at 0.1 µM [1]: 61 ± 1%
inhibition at 1 µM [1]: 75 ± 2%
inhibition at 10 µM [1]: 83 ± 2%
increase in telomerase activity compared to untreated cells [2]: 1.64 fold
TERT Concentration Mean ± SD [2]: 2.8 ± 0.04 ng/mL
Relative Increase (TERT vs untreated HFB4 control) [2]: 1.64

COc1cc([C@H]2OC[C@H]3[C@@H]2CO[C@@H]3c2ccc(O[C@@H]3O[C@H](CO)[C@@H](O)[C@H](O)[C@H]3O)c(OC)c2)ccc1O [Compound 5, pinoresinol 4-O-β-D-glucoside]
IC50 [1, 9]: 64.5 nM and 64 nM
inhibition at 0.01 µM [1]: 28 ± 3%
inhibition at 0.1 µM [1]: 59 ± 4%
inhibition at 1 µM [1]: 79 ± 1%
inhibition at 10 µM [1]: 88 ± 3%
increase in telomerase activity compared to untreated cells [2]: 1.66 fold
TERT Concentration Mean ± SD [2]: 2.8 ± 0.09 ng/mL
Relative Increase (TERT vs untreated HFB4 control) [2]: 1.66
inhibitory effect on the AChE enzyme [7]: 20.17 ± 0.44%
inhibitory effect on the butyrylcholinesterase enzyme [8]: 11.02 ± 0.35%

COc1cc(/C=C/C(=O)CC(=O)/C=C/c2ccc(O)c(OC)c2)ccc1O [Curcumin, curcumin, reference compound]
increase in telomerase activity compared to untreated cells [2]: 1.62 fold
TERT Concentration Mean ± SD [2]: 2.8 ± 0.03 ng/mL
Relative Increase (TERT vs untreated HFB4 control) [2]: 1.62

phillyrin [Compound 4]
% Inhibition of AChE ([1]; 0.01 µM): 26 ± 3%
% Inhibition of AChE ([1]; 0.1 µM): 41 ± 2%
% Inhibition of AChE ([1]; 1 µM): 64 ± 2%
% Inhibition of AChE ([1]; 10 µM): 73 ± 2%
increase in telomerase activity compared to untreated cells [2]: 1.72 fold and 1.71 fold
TERT Concentration Mean ± SD [2]: 2.9 ± 0.06 ng/mL
Relative Increase (TERT vs untreated HFB4 control) [2]: 1.72
